Data published in patent US20200190101A1, “Composition Containing Novel Glutamic Acid Derivative And Block Copolymer, And Use Thereof” (Nippon Kayaku Kabushiki Kaisha, priority 2015, published 2020).

What was measured:
[1] = test system: human ovarian cancer SHIN-3 tumors; assay: Test on antitumor effect of Synthesis Example 1, SHIN-3 tumors; type: in vivo; settings: three times at an interval of 7 days
Method: By an operation similar to that of Test Example 12, human ovarian cancer SHIN-3 tumors were subcutaneously transplanted into SCID mice, and tumor engraftment was confirmed.
After the administration, the major axis (L) and the minor axis (W) of a tumor were measured using calipers at an interval of 2 to 3 days, the tumor volume was calculated by the formula: (L×W^2)/2, and the tumor volume change rate from the administration initiation day was determined.

[2] = Test on pharmacokinetics of Example 1 (blood plasma); type: in vivo, mice; settings: mouse, iv, 10 mg/kg in terms of DXR i.v., read-out: AUC0-6 hr. Unchanged drug (DXR prodrug)
Method: At time points of 5 minutes, 1 hour, 3 hours, and 6 hours after administration, blood plasma was collected under ether anesthesia.

[3] = test system: SK-OV-3 cells having low GGT activity; assay: cells; type: cell-based; settings: Homo sapiens; SK-OV-3 cells, 10 μM, 6 hours exposure then 3 days incubation; read-out: Cell proliferation inhibitory activity
Method: After the cells were incubated for 6 hours, the interior of the wells was washed, and after the cells were further incubated for 3 days, the cells were immobilized with methanol and stained using Methylene Blue dye. After staining, the dye was extracted with a 0.3% aqueous solution of hydrochloric acid was extracted, and the light absorbance at 660 nm was measured. For the light absorbance thus obtained, the cell proliferation suppressive activity was evaluated based on the reduction ratio for the light absorbance measured from cells to which the compound was not added.
By a similar operation, the cell proliferation suppressive activity was evaluated from the light absorbance, using doxorubicin that was not converted to a glutamic acid derivative. The results are shown in FIG. 1 (OS-RC-2 cells having high GGT activity) and FIG. 2 (SK-OV-3 cells having low GGT activity).
The cell proliferation inhibitory activity of the EHC-bonded glutamic acid derivative according to Synthesis Example 6 was evaluated using OS-RC-2 cells (RIKEN BioResource Center), which are known to have high GGT activity, and SK-OV-3 cells (American Type Culture Collection), which are known to have low GGT activity.
On a 96-well plate, OS-RC-2 cells having high GGT activity and SK-OV-3 cells having low GGT activity were each inoculated in an amount of 4,000 cells/well and were incubated for one day at 37° C. and 5% CO2, and then the EHC prodrug according to Synthesis Example 6 was added to the cells at a final concentration of 0.0001 to 1 μM. After the cells were incubated for 6 hours, the interior of the wells was washed, and the cells were further incubated for 3 days. After the incubation, the cells were immobilized with methanol and were stained using Methylene Blue dye. After staining, the dye was extracted with a 0.3% aqueous solution of hydrochloric acid, and the light absorbance at 660 nm was measured. The cell proliferation suppressive activity was evaluated based on the reduction ratio for the light absorbance thus obtained, with respect to the light absorbance measured from cells to which the compound was not added.
By a similar operation, EHC, which was an active ingredient of Synthesis Example 6, was used without modification, and the cell proliferation suppressive activity was evaluated from the light absorbance.

COc1cccc2c1C(=O)c1c(O)c3c(c(O)c1C2=O)C[C@@](O)(C(=O)CO)CC3OC1CC(NC(=O)OCc2ccc(NC(=O)CCC(N)C(=O)O)cc2)C(O)C(C)O1 (stereo partly drawn) [Synthesis Example 1, (((4-((S)-4-amino-4-carboxybutanamide)benzyl)oxy)carbonyl)doxorubicin]
Antitumor effect (relative tumor volume) versus control drug ([1]; 20 mg/kg-administered group, i.v.): antitumor effect that was equivalent to that of the control drug | Antitumor effect (relative tumor volume) ([1]; 5 or 20 mg/kg i.v.): dose-dependent antitumor effect | AUC(0-t) [2]: 6240 ng·h/mL | inhibition at 10 µM [3]: 13%
